Tests used:
Format in all cases: in vivo
[1] = system: Chenopodium album; assay: Farming soil treatment test; settings: soil surface spray prior to weed growth, 30 days
Description: (§1) Field soil was filled into a 1/6000 are pot followed by seeding with Digitaria ciliaris, Chenopodium album and Amaranthus retroflexus and covering with soil. Wettable powders of compounds of formula (I) shown in Table 1 prepared in compliance with the preparation examples were diluted with water to the prescribed amount of chemical and uniformly sprayed onto each soil surface layer using 100 liters of sprayed water per 10 are prior to weed growth following seeding. After treating for 30 days in a glass greenhouse at an average atmospheric temperature of 30° C., the herbicidal efficacy thereof was investigated. Evaluation of herbicidal efficacy was carried out in the same manner as the above-mentioned Test Example 1.

[2] = system: Amaranthus retroflexus; assay: Farming soil treatment test; settings: soil surface spray prior to weed growth, 30 days
Description: as §1

[3] = system: Digitaria ciliaris; assay: Farming soil treatment test; settings: soil surface spray prior to weed growth, 30 days
Description: as §1

[4] = system: Digitaria ciliaris; assay: Weed foliar treatment test (Test 4, 4.0 to 5.0 leaf stage); settings: 10 g a.i./10 a; foliar spray at 4.0 to 5.0 leaf stage of Digitaria ciliaris (plant height 10 cm to 15 cm); 20 days
Description: (§2) Field soil was filled into a 1/4500 are pot followed by seeding with Digitaria ciliaris and Galinsoga parviflora, covering with soil and cultivating in a glass greenhouse at an average atmospheric temperature of 25° C.
(§3) Wettable powders of Target Compound (I) shown in Table 1 prepared in compliance with the preparation examples were diluted with water to the prescribed amount of chemical and uniformly sprayed onto the weeds using 100 liters of sprayed water per 10 are when Digitaria ciliaris had grown to the 4.0 to 5.0 leaf stage (plant height: 10 cm to 15 cm).
(§4) After treating for 20 days in a glass greenhouse at an average atmospheric temperature of 25° C., the herbicidal efficacy thereof was investigated.
(§5) Evaluation of herbicidal efficacy was carried out in the same manner as the above-mentioned Test Example 1.

[5] = system: Galinsoga parviflora; assay: as above; settings: 10 g a.i./10 a; foliar spray at 4.0 to 5.0 leaf stage of Digitaria ciliaris; 20 days
Description: as §2, §3, §4, §5

[6] = system: Monochoria vaginalis; assay: Paddy herbicidal activity test; settings: irrigated pot, 30 days
Description: (§6) 1. Paddy Herbicidal Activity Test Rice paddy soil was filled into a 1/10000 are pot followed by the addition of suitable amounts of water and chemical fertilizer, kneading, seeding with Echinochloa crus-galli, Monochoria vaginalis and Scirpus juncoides and maintaining in an irrigated state at a water depth of 3 cm. Wettable powders of Target Compound (I) shown in Table 1 prepared in compliance with the preparation examples were diluted with a suitable amount of water, rice plants in the 2.0 leaf stage were transplanted during 3.5 leaf stage of Echinochloa crus-galli, and treated by dropping in chemical in the prescribed amount per 10 are using a pipette. After treating for 30 days in a glass greenhouse at an average atmospheric temperature of 30° C., the herbicidal efficacy thereof was investigated. Evaluation of herbicidal efficacy was carried out by comparing growth inhibition rate (%) with an untreated group, while evaluation of phytotoxicity was carried out by comparing growth inhibition rate (%) with the state of a complete eradication group, and were evaluated at 11 levels indicated below.

[7] = system: Scirpus juncoides; assay: Paddy herbicidal activity test; settings: irrigated pot, 30 days
Description: as §6

[8] = system: Echinochloa crus-galli; assay: Paddy herbicidal activity test; settings: irrigated pot, treated at 3.5 leaf stage of Echinochloa crus-galli, 30 days
Description: as §6

[9] = system: Chenopodium album; assay: Weed foliar treatment test (Test 3, 1.0 to 2.0 leaf stage); settings: foliar spray at 1.0 to 2.0 leaf stage of Digitaria ciliaris, 3 weeks
Description: (§7) Soil was filled into a 1/6000 are pot followed by seeding with Digitaria ciliaris, Chenopodium album and Amaranthus retroflexus, covering with soil, and cultivating in a glass greenhouse at an average atmospheric temperature of 25° C. Wettable powders of Target Compound (I) shown in Table 1 prepared in compliance with the preparation examples were diluted with water to the prescribed amount of chemical and uniformly sprayed onto the weeds using 150 liters of sprayed water per 10 are when Digitaria ciliaris had grown to the 1.0 to 2.0 leaf stage. After treating for 3 weeks in a glass greenhouse at an average atmospheric temperature of 25° C., the herbicidal efficacy thereof was investigated. Evaluation of herbicidal efficacy was carried out in the same manner as the above-mentioned Test Example 1.

[10] = system: Amaranthus retroflexus; assay: as above; settings: foliar spray at 1.0 to 2.0 leaf stage of Digitaria ciliaris, 3 weeks
Description: as §7

[11] = system: Digitaria ciliaris; assay: as above; settings: foliar spray at 1.0 to 2.0 leaf stage of Digitaria ciliaris, 3 weeks
Description: as §7

[12] = system: Oryza sativa; assay: Paddy herbicidal activity test, phytotoxicity to transplanted rice; settings: rice transplanted in 2.0 leaf stage, 30 days
Description: as §6

COC=Nc1c(C#N)cnn1-c1nn2c(c1Cl)CCCC2 [Compound 33]
herbicidal efficacy, Chenopodium album ([1]; 5 g a.i./10 a): 9 (90% to less than 100%) | herbicidal efficacy, Chenopodium album ([1]; 10 g a.i./10 a): 9 (90% to less than 100%) | herbicidal efficacy, Amaranthus retroflexus ([2]; 5 g a.i./10 a): 9 (90% to less than 100%) | herbicidal efficacy, Amaranthus retroflexus ([2]; 10 g a.i./10 a): 9 (90% to less than 100%) | herbicidal efficacy, Digitaria ciliaris ([3]; 5 g a.i./10 a): 9 (90% to less than 100%) | herbicidal efficacy, Digitaria ciliaris ([3]; 10 g a.i./10 a): 9 (90% to less than 100%) | herbicidal efficacy, Digitaria ciliaris [4]: 9 (90% to less than 100%) | herbicidal efficacy, Galinsoga parviflora [5]: 10 (100%) | herbicidal efficacy, Monochoria vaginalis ([6]; 1 g a.i./10 a): 9 (90% to less than 100%) | herbicidal efficacy, Monochoria vaginalis ([6]; 5 g a.i./10 a): 10 (100%) | herbicidal efficacy, Scirpus juncoides ([7]; 1 g a.i./10 a): 9 (90% to less than 100%) | herbicidal efficacy, Scirpus juncoides ([7]; 5 g a.i./10 a): 9 (90% to less than 100%) | herbicidal efficacy, Echinochloa crus-galli ([8]; 1 g a.i./10 a): 9 (90% to less than 100%) | herbicidal efficacy, Echinochloa crus-galli ([8]; 5 g a.i./10 a): 9 (90% to less than 100%) | herbicidal efficacy, Chenopodium album ([9]; 5 g a.i./10 a): 10 (100%) | herbicidal efficacy, Chenopodium album ([9]; 10 g a.i./10 a): 10 (100%) | herbicidal efficacy, Amaranthus retroflexus ([10]; 5 g a.i./10 a): 9 (90% to less than 100%) | herbicidal efficacy, Amaranthus retroflexus ([10]; 10 g a.i./10 a): 9 (90% to less than 100%) | herbicidal efficacy, Digitaria ciliaris ([11]; 5 g a.i./10 a): 9 (90% to less than 100%) | herbicidal efficacy, Digitaria ciliaris ([11]; 10 g a.i./10 a): 9 (90% to less than 100%) | phytotoxicity, Oryza sativa ([12]; 1 g a.i./10 a): 0 (0% to less than 10% (growth inhibition rate)) | phytotoxicity, Oryza sativa ([12]; 5 g a.i./10 a): 1 (10% to less than 20%)

N#Cc1cnn(-c2nn3c(c2Cl)CCCC3)c1N=Cc1ccncc1 [Compound 23]
herbicidal efficacy, Chenopodium album ([1]; 5 g a.i./10 a): 10 (100%) | herbicidal efficacy, Chenopodium album ([1]; 10 g a.i./10 a): 10 (100%) | herbicidal efficacy, Amaranthus retroflexus ([2]; 5 g a.i./10 a): 9 (90% to less than 100%) | herbicidal efficacy, Amaranthus retroflexus ([2]; 10 g a.i./10 a): 10 (100%) | herbicidal efficacy, Digitaria ciliaris ([3]; 5 g a.i./10 a): 9 (90% to less than 100%) | herbicidal efficacy, Digitaria ciliaris ([3]; 10 g a.i./10 a): 10 (100%) | herbicidal efficacy, Digitaria ciliaris [4]: 9 (90% to less than 100%) | herbicidal efficacy, Galinsoga parviflora [5]: 10 (100%) | herbicidal efficacy, Monochoria vaginalis ([6]; 1 g a.i./10 a): 10 (100%) | herbicidal efficacy, Monochoria vaginalis ([6]; 5 g a.i./10 a): 10 (100%) | herbicidal efficacy, Scirpus juncoides ([7]; 1 g a.i./10 a): 10 (100%) | herbicidal efficacy, Scirpus juncoides ([7]; 5 g a.i./10 a): 10 (100%) | herbicidal efficacy, Echinochloa crus-galli ([8]; 1 g a.i./10 a): 10 (100%) | herbicidal efficacy, Echinochloa crus-galli ([8]; 5 g a.i./10 a): 10 (100%) | herbicidal efficacy, Chenopodium album ([9]; 5 g a.i./10 a): 10 (100%) | herbicidal efficacy, Chenopodium album ([9]; 10 g a.i./10 a): 10 (100%) | herbicidal efficacy, Amaranthus retroflexus ([10]; 5 g a.i./10 a): 9 (90% to less than 100%) | herbicidal efficacy, Amaranthus retroflexus ([10]; 10 g a.i./10 a): 10 (100%) | herbicidal efficacy, Digitaria ciliaris ([11]; 5 g a.i./10 a): 9 (90% to less than 100%) | herbicidal efficacy, Digitaria ciliaris ([11]; 10 g a.i./10 a): 10 (100%) | phytotoxicity, Oryza sativa ([12]; 1 g a.i./10 a): 0 (0% to less than 10% (growth inhibition rate)) | phytotoxicity, Oryza sativa ([12]; 5 g a.i./10 a): 1 (10% to less than 20%)

N#Cc1cnn(-c2nn3c(c2Br)CCCC3)c1/C=C/c1ccccn1 [Compound 3.44, reference compound]
herbicidal efficacy, Chenopodium album ([1]; 5 g a.i./10 a): 2 (20% to less than 30%) | herbicidal efficacy, Chenopodium album ([1]; 10 g a.i./10 a): 3 (30% to less than 40%) | herbicidal efficacy, Amaranthus retroflexus ([2]; 5 g a.i./10 a): 0 (0% to less than 10% (growth inhibition rate)) | herbicidal efficacy, Amaranthus retroflexus ([2]; 10 g a.i./10 a): 2 (20% to less than 30%) | herbicidal efficacy, Digitaria ciliaris ([3]; 5 g a.i./10 a): 0 (0% to less than 10% (growth inhibition rate)) | herbicidal efficacy, Digitaria ciliaris ([3]; 10 g a.i./10 a): 1 (10% to less than 20%) | herbicidal efficacy, Digitaria ciliaris [4]: 0 (0% to less than 10% (growth inhibition rate)) | herbicidal efficacy, Galinsoga parviflora [5]: 0 (0% to less than 10% (growth inhibition rate)) | herbicidal efficacy, Monochoria vaginalis ([6]; 1 g a.i./10 a): 2 (20% to less than 30%) | herbicidal efficacy, Monochoria vaginalis ([6]; 5 g a.i./10 a): 2 (20% to less than 30%) | herbicidal efficacy, Scirpus juncoides ([7]; 1 g a.i./10 a): 0 (0% to less than 10% (growth inhibition rate)) | herbicidal efficacy, Scirpus juncoides ([7]; 5 g a.i./10 a): 1 (10% to less than 20%) | herbicidal efficacy, Echinochloa crus-galli ([8]; 1 g a.i./10 a): 1 (10% to less than 20%) | herbicidal efficacy, Echinochloa crus-galli ([8]; 5 g a.i./10 a): 2 (20% to less than 30%) | herbicidal efficacy, Chenopodium album ([9]; 5 g a.i./10 a): 1 (10% to less than 20%) | herbicidal efficacy, Chenopodium album ([9]; 10 g a.i./10 a): 2 (20% to less than 30%) | herbicidal efficacy, Amaranthus retroflexus ([10]; 5 g a.i./10 a): 0 (0% to less than 10% (growth inhibition rate)) | herbicidal efficacy, Amaranthus retroflexus ([10]; 10 g a.i./10 a): 0 (0% to less than 10% (growth inhibition rate)) | herbicidal efficacy, Digitaria ciliaris ([11]; 5 g a.i./10 a): 0 (0% to less than 10% (growth inhibition rate)) | herbicidal efficacy, Digitaria ciliaris ([11]; 10 g a.i./10 a): 0 (0% to less than 10% (growth inhibition rate)) | phytotoxicity, Oryza sativa ([12]; 1 g a.i./10 a): 0 (0% to less than 10% (growth inhibition rate)) | phytotoxicity, Oryza sativa ([12]; 5 g a.i./10 a): 1 (10% to less than 20%)

Source: patent publication US10165777B2, “Substituted pyrazolylpyrazole derivative and use of same as herbicide” (KYOYU AGRI CO., LTD., priority 2015, dated 2019)
